Test results: patent publication US9924716B2, “Molecules having pesticidal utility, and intermediates, compositions, and processes, related thereto” (Dow AgroSciences LLC, priority 2016, dated 2018)

Tests used:
Format in all cases: in vivo
[1] = system: Yellow Fever Mosquito (Aedes aegypti, AEDSAE) larvae; assay: Bioassay on Yellow Fever Mosquito (YFM), 96-well plate larval assay; details: Table ABC Biological Results
Protocol: Certain molecules disclosed in this document were tested against YFM using procedures described in the following paragraph. In the reporting of the results, the “GPA & YFM Rating Table” was used (See Table Section).
Master plates containing 400 μg of a molecule dissolved in 100 μL of dimethyl sulfoxide (DMSO) (equivalent to a 4000 ppm solution) are used. A master plate of assembled molecules contains 15 μL per well. To this plate, 135 μL of a 90:10 water:acetone mixture is added to each well. A robot (Biomek® NXP Laboratory Automation Workstation) is programmed to dispense 15 μL aspirations from the master plate into an empty 96-well shallow plate (“daughter” plate). There are 6 reps (“daughter” plates) created per master. The created daughter plates are then immediately infested with YFM larvae.
The day before plates are to be treated, mosquito eggs are placed in Millipore water containing liver powder to begin hatching (4 g. into 400 mL). After the daughter plates are created using the robot, they are infested with 220 μL of the liver powder/larval mosquito mixture (about 1 day-old larvae). After plates are infested with mosquito larvae, a non-evaporative lid is used to cover the plate to reduce drying. Plates are held at room temperature for 3 days prior to grading. After 3 days, each well is observed and scored based on mortality. The results are indicated in the table entitled “Table ABC: Biological Results” (See Table Section).

[2] = system: Cabbage Looper (Trichoplusia ni, TRIPNI) second instar larvae; assay: Bioassay on Cabbage Looper (CL), 128-well diet tray assay; details: for pest or weed control at 50 µg/cm2: Cabbage Looper, Table ABC Biological Results, read-out: CL rating; for mortality at 0.05 µg/cm2: 0.05 μg/cm^2 on artificial diet; for mortality at 0.05 µg/cm2 / mortality at 0.5 µg/cm2 / mortality at 5 µg/cm2: read-out: Percent control (or mortality) CL; for mortality at 0.5 µg/cm2: 0.5 μg/cm^2 on artificial diet; for mortality at 5 µg/cm2: 5 μg/cm^2 on artificial diet
Protocol: (§1) Certain molecules disclosed in this document were tested against BAW, CEW, and CL using procedures described in the following examples. In the reporting of the results, the “BAW, CEW, & CL Rating Table” was used (See Table Section).
Bioassays on CL were conducted using a 128-well diet tray assay. one to five second instar CL larvae were placed in each well (3 mL) of the diet tray that had been previously filled with 1 mL of artificial diet to which 50 μg/cm^2 of the test molecule (dissolved in 50 μL of 90:10 acetone-water mixture) had been applied (to each of eight wells) and then allowed to dry. Trays were covered with a clear self-adhesive cover and held at 25° C., 14:10 light-dark for five to seven days. Percent mortality was recorded for the larvae in each well; activity in the eight wells was then averaged. The results are indicated in the table entitled “Table ABC: Biological Results” (See Table Section).
(§2) Bioassays on BAW and CL were conducted according to the procedures outlined in Example A: Bioassays on Beet Armyworm (“BAW”) and Cabbage Looper (“CL”) using the indicated concentrations.

[3] = system: Beet Armyworm (Spodoptera exigua, LAPHEG) second instar larvae; assay: Bioassay on Beet Armyworm (BAW), 128-well diet tray assay; details: for pest or weed control at 50 µg/cm2: Beet Armyworm, Table ABC Biological Results, read-out: BAW rating; for mortality at 0.05 µg/cm2: 0.05 μg/cm^2 on artificial diet; for mortality at 0.05 µg/cm2 / mortality at 0.5 µg/cm2 / mortality at 5 µg/cm2: read-out: Percent control (or mortality) BAW; for mortality at 0.5 µg/cm2: 0.5 μg/cm^2 on artificial diet; for mortality at 5 µg/cm2: 5 μg/cm^2 on artificial diet
Protocol: as §1
Bioassays on BAW were conducted using a 128-well diet tray assay. one to five second instar BAW larvae were placed in each well (3 mL) of the diet tray that had been previously filled with 1 mL of artificial diet to which 50 μg/cm^2 of the test molecule (dissolved in 50 μL of 90:10 acetone-water mixture) had been applied (to each of eight wells) and then allowed to dry. Trays were covered with a clear self-adhesive cover and held at 25° C., 14:10 light-dark for five to seven days. Percent mortality was recorded for the larvae in each well; activity in the eight wells was then averaged. The results are indicated in the table entitled “Table ABC: Biological Results” (See Table Section).
as §2

Structure (SMILES)	YFM rating [1]	pest or weed control at 50 µg/cm2 [2]	pest or weed control at 50 µg/cm2 [3]	mortality at 0.05 µg/cm2 [2]	mortality at 0.5 µg/cm2 [2]	mortality at 5 µg/cm2 [2]	mortality at 0.05 µg/cm2 [3]	mortality at 0.5 µg/cm2 [3]	mortality at 5 µg/cm2 [3]
Cc1cc(C(/C=C(\F)c2ccc(C(=O)N[C@H](C)NC(=O)CCC(F)(F)F)c(C(F)(F)F)c2)C(F)(F)F)cc(C)c1Cl (stereo partly drawn) [F25, 4-((Z)-3-(4-Chloro-3,5-dimethylphenyl)-1,4,4,4-tetrafluorobut-1-en-1-yl)-N—((R)-1-(4,4,4-trifluorobutanamido)ethyl)-2-(trifluoromethyl)benzamide]	A (80-100)	50 to 100%	50 to 100%	–	–	–	–	–	–
C[C@H](NC(=O)CCC(F)(F)F)NC(=O)c1ccc(/C(F)=C/C(c2ccc(Cl)c(Cl)c2)C(F)(F)F)cc1C(F)(F)F (stereo partly drawn) [F14, 4-((Z)-3-(3,4-Dichlorophenyl)-1,4,4,4-tetrafluorobut-1-en-1-yl)-N—((R)-1-(4,4,4-trifluorobutanamido)ethyl)-2-(trifluoromethyl)benzamide]	A (80-100)	50 to 100%	50 to 100%	–	–	–	–	–	–
C[C@H](NC(=O)CC(F)(F)F)NC(=O)c1ccc(/C(F)=C/C(c2cc(Cl)cc(Br)c2)C(F)(F)F)cc1C(F)(F)F (stereo partly drawn) [F36, 4-((Z)-3-(3-Bromo-5-chlorophenyl)-1,4,4,4-tetrafluorobut-1-en-1-yl)-2-(trifluoromethyl)-N—((R)-1-(3,3,3-trifluoropropanamido)ethyl)benzamide]	A (80-100)	50 to 100%	50 to 100%	–	–	–	–	–	–
C[C@H](NC(=O)CC(F)(F)F)NC(=O)c1ccc(/C(F)=C/C(c2ccc(Br)c(Br)c2)C(F)(F)F)cc1C(F)(F)F (stereo partly drawn) [F32, 4-((Z)-3-(3,4-Dibromophenyl)-1,4,4,4-tetrafluorobut-1-en-1-yl)-2-(trifluoromethyl)-N—((R)-1-(3,3,3-trifluoropropanamido)ethyl)benzamide]	A (80-100)	50 to 100%	50 to 100%	–	–	–	–	–	–
C[C@H](NC(=O)CCC#N)NC(=O)c1ccc(/C(F)=C/C(c2cc(Cl)c(Cl)c(Cl)c2)C(F)(F)F)cc1C(F)(F)F (stereo partly drawn) [F41, N—((R)-1-(3-Cyanopropanamido)ethyl)-4-((Z)-1,4,4,4-tetrafluoro-3-(3,4,5-trichlorophenyl)but-1-en-1-yl)-2-(trifluoromethyl)benzamide]	A (80-100)	50 to 100%	50 to 100%	–	–	–	–	–	–
Cc1cc(C(/C=C(\F)c2ccc(C(=O)N[C@H](C)NC(=O)CC(F)(F)F)c(C(F)(F)F)c2)C(F)(F)F)cc(C)c1Cl (stereo partly drawn) [F24, 4-((Z)-3-(4-Chloro-3,5-dimethylphenyl)-1,4,4,4-tetrafluorobut-1-en-1-yl)-2-(trifluoromethyl)-N—((R)-1-(3,3,3-trifluoropropanamido)ethyl)benzamide]	A (80-100)	50 to 100%	50 to 100%	–	–	–	–	–	–
C[C@H](NC(=O)CCC(F)(F)F)NC(=O)c1ccc(/C(F)=C/C(c2ccc(F)c(Cl)c2)C(F)(F)F)cc1C(F)(F)F (stereo partly drawn) [PF3, 4-((Z)-3-(3-Chloro-4-fluorophenyl)-1,4,4,4-tetrafluorobut-1-en-1-yl)-N—((R)-1-(4,4,4-trifluorobutanamido)ethyl)-2-(trifluoromethyl)benzamide]	B (More than 0-Less than 80)	50 to 100%	50 to 100%	–	–	–	–	–	–
Cc1cc(/C(F)=C/C(c2cc(Cl)c(Cl)c(Cl)c2)C(F)(F)F)ccc1C(=O)N[C@H](C)NC(=O)CC(F)(F)F (stereo partly drawn) [F33, 2-Methyl-4-((Z)-1,4,4,4-tetrafluoro-3-(3,4,5-trichlorophenyl)but-1-en-1-yl)-N—((R)-1-(3,3,3-trifluoropropanamido)ethyl)benzamide]	–	50 to 100%	50 to 100%	100%	100%	100%	88%	100%	100%
C[C@H](NC(=O)CCC(F)(F)F)NC(=O)c1ccc(/C(F)=C/C(c2ccc(Cl)c(Br)c2)C(F)(F)F)cc1C(F)(F)F (stereo partly drawn) [PF13, 4-((Z)-3-(3-Bromo-4-chlorophenyl)-1,4,4,4-tetrafluorobut-1-en-1-yl)-N—((R)-1-(4,4,4-trifluorobutanamido)ethyl)-2-(trifluoromethyl)benzamide]	–	50 to 100%	50 to 100%	–	–	–	–	–	–
CCC(F)(F)C(/C=C(\F)c1ccc(C(=O)N[C@H](C)NC(=O)CC(F)(F)F)c(C(F)(F)F)c1)c1cc(Cl)c(Cl)c(Cl)c1 (stereo partly drawn) [F20, 4-((Z)-1,4,4-Trifluoro-3-(3,4,5-trichlorophenyl)hex-1-en-1-yl)-2-(trifluoromethyl)-N—((R)-1-(3,3,3-trifluoropropanamido)ethyl)benzamide]	–	50 to 100%	50 to 100%	–	–	–	–	–	–
CCC(=O)N[C@@H](C)NC(=O)c1ccc(/C(F)=C/C(c2cc(Cl)c(Cl)c(Cl)c2)C(F)(F)F)cc1C(F)(F)F (stereo partly drawn) [F34, N—((R)-1-propionamidoethyl)-4-((Z)-1,4,4,4-tetrafluoro-3-(3,4,5-trichlorophenyl)but-1-en-1-yl)-2-(trifluoromethyl)benzamide]	–	50 to 100%	50 to 100%	–	–	–	–	–	–
CCC(F)(F)C(/C=C(\F)c1ccc(C(=O)N[C@H](C)NC(=O)CCC(F)(F)F)c(C(F)(F)F)c1)c1cc(Cl)c(Cl)c(Cl)c1 (stereo partly drawn) [F21, 4-((Z)-1,4,4-Trifluoro-3-(3,4,5-trichlorophenyl)hex-1-en-1-yl)-N—((R)-1-(4,4,4-trifluorobutanamido)ethyl)-2-(trifluoromethyl)benzamide]	–	50 to 100%	50 to 100%	–	–	–	–	–	–
Cc1cc(/C(F)=C/C(c2cc(Cl)c(Cl)c(Cl)c2)C(F)(F)F)ccc1C(=O)N[C@H](C)NC(=O)CCC(F)(F)F (stereo partly drawn) [F2, 2-Methyl-4-((Z)-1,4,4,4-tetrafluoro-3-(3,4,5-trichlorophenyl)but-1-en-1-yl)-N—((R)-1-(4,4,4-trifluorobutanamido)ethyl)benzamide]	–	50 to 100%	50 to 100%	100%	100%	100%	100%	100%	100%
C[C@H](NC(=O)CCC(F)(F)F)NC(=O)c1ccc(/C(F)=C/C(c2cc(Cl)c(Cl)c(Cl)c2)C(F)(F)F)cc1Cl (stereo partly drawn) [F9, 2-Chloro-4-((Z)-1,4,4,4-tetrafluoro-3-(3,4,5-trichlorophenyl)but-1-en-1-yl)-N—((R)-1-(4,4,4-trifluorobutanamido)ethyl)benzamide]	–	50 to 100%	50 to 100%	100%	100%	100%	100%	100%	100%
C[C@H](NC(=O)NC1CC1)NC(=O)c1ccc(/C(F)=C/C(c2cc(Cl)c(Cl)c(Cl)c2)C(F)(F)F)cc1C(F)(F)F (stereo partly drawn) [F29, N—((S)-1-(3-cyclopropylureido)ethyl)-4-((Z)-1,4,4,4-tetrafluoro-3-(3,4,5-trichlorophenyl)but-1-en-1-yl)-2-(trifluoromethyl)benzamide]	–	50 to 100%	50 to 100%	–	–	–	–	–	–
C[C@H](NC(=O)CCC(F)(F)F)NC(=O)c1ccc(/C(F)=C/C(c2ccc(Cl)c(Cl)c2)C(C)(F)F)cc1C(F)(F)F (stereo partly drawn) [F40, 4-((Z)-3-(3,4-Dichlorophenyl)-1,4,4-trifluoropent-1-en-1-yl)-N—((R)-1-(4,4,4-trifluorobutanamido)ethyl)-2-(trifluoromethyl)benzamide]	–	50 to 100%	50 to 100%	–	–	–	–	–	–
